Experimental data published in patent publication US11472803B2, “7-substituted 1-aryl-naphthyridine-3-carboxylic acid amides and use thereof” (Bayer Aktiengesellschaft, priority 2016, dated 2022).

Biological target: T1, human M2 receptor (Homo sapiens, UniProt P08172)
T1 construct: expressed in transfected cells; host or cells: CHO-DUKX (CHO-DUKX-M2-GIRK)
T1 sequence (P08172 1-466): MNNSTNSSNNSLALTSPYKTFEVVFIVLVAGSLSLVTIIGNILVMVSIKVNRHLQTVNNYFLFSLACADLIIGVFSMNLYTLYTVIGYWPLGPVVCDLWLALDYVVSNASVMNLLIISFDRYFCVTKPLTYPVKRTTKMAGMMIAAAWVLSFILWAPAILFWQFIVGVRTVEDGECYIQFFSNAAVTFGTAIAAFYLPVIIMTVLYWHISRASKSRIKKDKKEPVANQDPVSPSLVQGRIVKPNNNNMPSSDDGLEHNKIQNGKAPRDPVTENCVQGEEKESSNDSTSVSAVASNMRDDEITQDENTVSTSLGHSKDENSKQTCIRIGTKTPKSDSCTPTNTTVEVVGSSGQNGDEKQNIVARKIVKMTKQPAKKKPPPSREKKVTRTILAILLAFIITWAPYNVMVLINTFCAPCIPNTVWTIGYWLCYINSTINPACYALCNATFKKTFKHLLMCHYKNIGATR
Assay: Functional M2-GIRK1/4 activation test: allosteric potency (EC50) and efficiency at EC20 acetylcholine
Format: cell-based
Conditions: CHO-DUKX-M2-GIRK cells; for EC50: voltage-sensitive dye, acetylcholine at EC20, in some cases mean of two or more determinations; for Emax / Efficiency: boosting of the acetylcholine effect at EC20 acetylcholine concentration
Outline: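 Positive allosteric modulation measured as boosting of an EC20 acetylcholine response: hyperpolarization via GIRK1/4 in CHO-DUKX-M2-GIRK cells, monitored by membrane-potential dye fluorescence over 60 s after agonist, compound preadded. Hill-function fit gives EC50 and efficiency.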

Row | SMILES | EC50 | Emax | Efficiency
1 | COC[C@@H](NC(=O)c1cn(-c2c(F)cc(F)cc2F)c2nc(N3C[C@@H](O)[C@@H](O)C3)c(F)cc2c1=O)C(C)C [Example 102, 7-[(3R,4S)-3,4-Dihydroxypyrrolidin-1-yl]-6-fluoro-N-[(2S)-1-methoxy-3-methylbutan-2-yl]-4-oxo-1-(2,4,6-trifluorophenyl)-1,4-dihydro-1,8-naphthyridine-3-carboxamide] | 295 nM | 92% | 
2 | CC(C)C(NC(=O)c1cn(-c2c(F)cc(F)cc2F)c2nc(N3C[C@@H](O)[C@@H](O)C3)c(F)cc2c1=O)C(C)C [Example 103, 7-[(3R,4S)-3,4-Dihydroxypyrrolidin-1-yl]-N-(2,4-dimethylpentan-3-yl)-6-fluoro-4-oxo-1-(2,4,6-trifluorophenyl)-1,4-dihydro-1,8-naphthyridine-3-carboxamide] | 8.1 nM | 100% | 
3 | CCC(NC(=O)c1cn(-c2c(F)cc(F)cc2F)c2nc(N3C[C@@H](O)[C@@H](O)C3)c(F)cc2c1=O)C(C)C (stereo partly drawn) [Example 105, 7-[(3R,4S)-3,4-Dihydroxypyrrolidin-1-yl]-6-fluoro-V-[2-methylpentan-3-yl]-6-fluoro-4-oxo-1-(2,4,6-trifluorophenyl)-1,4-dihydro-1,8-naphthyridine-3-carboxamide] | 7.5 nM |  | 97%
4 | CCC(NC(=O)c1cn(-c2c(F)cc(F)cc2F)c2nc(N3C[C@@H](O)[C@@H](O)C3)c(F)cc2c1=O)C(C)C (stereo partly drawn) [Example 106, 7-[(3R,4S)-3,4-Dihydroxypyrrolidin-1-yl]-6-fluoro-V-[2-methylpentan-3-yl]-6-fluoro-4-oxo-1-(2,4,6-trifluorophenyl)-1,4-dihydro-1,8-naphthyridine-3-carboxamide] | 7.2 nM |  | 100%
5 | CC(C)(CC(F)(F)F)NC(=O)c1cn(-c2c(F)cc(F)cc2F)c2nc(N3CC[C@H](O)C3)c(F)cc2c1=O [Example 107, 6-Fluoro-7-[(3S)-3-hydroxypyrrolidin-1-yl]-4-oxo-N-(4,4,4-trifluoro-2-methylbutan-2-yl)-1-(2,4,6-trifluorophenyl)-1,4-dihydro-1,8-naphthyridine-3-carboxamide] | 3.55 nM | 92% | 
6 | CC(C)[C@H](C)NC(=O)c1cn(-c2c(F)cc(F)cc2F)c2nc(N3CC[C@H](O)C3)c(F)cc2c1=O [Example 119, 6-Fluoro-7-[(3S)-3-hydroxypyrrolidin-1-yl]-N-[(2S)-3-methylbutan-2-yl]-4-oxo-1-(2,4,6-tri-fluorophenyl)-1,4-dihydro-1,8-naphthyridine-3-carboxamide] | 8.7 nM | 100% | 
7 | CC(C)[C@@H](C)NC(=O)c1cn(-c2c(F)cc(F)cc2F)c2nc(N3CC[C@H](O)C3)c(F)cc2c1=O [Example 120, 6-Fluoro-7-[(3S)-3-hydroxypyrrolidin-1-yl]-N-[(2R)-3-methylbutan-2-yl]-4-oxo-1-(2,4,6-tri-fluorophenyl)-1,4-dihydro-1,8-naphthyridine-3-carboxamide] | 10.5 nM | 96% | 
8 | COC[C@H](NC(=O)c1cn(-c2c(F)cc(F)cc2F)c2nc(N3CC[C@H](O)C3)c(F)cc2c1=O)C(C)C [Example 121, 6-Fluoro-7-[(3S)-3-hydroxypyrrolidin-1-yl]-N-[(2R)-1-methoxy-3-methylbutan-2-yl]-4-oxo-1-(2,4,6-trifluorophenyl)-1,4-dihydro-1,8-naphthyridine-3-carboxamide] | 125 nM | 100% | 
9 | CC(C)C(NC(=O)c1cn(-c2c(F)cc(F)cc2F)c2nc(N3CC[C@H](O)C3)c(F)cc2c1=O)C(C)C [Example 122, N-(2,4-Dimethylpentan-3-yl)-6-fluoro-7-[(3S)-3-hydroxypyrrolidin-1-yl]-4-oxo-1-(2,4,6-tri-fluorophenyl)-1,4-dihydro-1,8-naphthyridine-3-carboxamide] | 3.55 nM | 100% | 
10 | CC(C)(NC(=O)c1cn(-c2c(F)cc(F)cc2F)c2nc(N3C[C@@H](O)[C@@H](O)C3)c(F)cc2c1=O)C(F)(F)F [Example 124, 7-[(3R,4S)-3,4-Dihydroxypyrrolidin-1-yl]-6-fluoro-4-oxo-N-(1,1,1-trifluoro-2-methylpropan-2-yl)-1-(2,4,6-trifluorophenyl)-1,4-dihydro-1,8-naphthyridine-3-carboxamide] | 18 nM | 100% | 
11 | CC(C)(NC(=O)c1cn(-c2c(F)cc(F)cc2F)c2nc(N3CC[C@H](O)C3)c(F)cc2c1=O)C(F)(F)F [Example 125, 6-Fluoro-7-[(3S)-3-hydroxypyrrolidin-1-yl]-4-oxo-N-(1,1,1-trifluoro-2-methylpropan-2-yl)-1-(2,4,6-trifluorophenyl)-1,4-dihydro-1,8-naphthyridine-3-carboxamide] | 12 nM | 97% | 
12 | O=C(Nc1c(Cl)cccc1Cl)c1cn(-c2c(F)cc(F)cc2F)c2nc(N3C[C@@H](O)[C@H](O)C3)c(F)cc2c1=O [Example 130, N-(2,6-Dichlorophenyl)-7-[(3R,4R)-3,4-dihydroxypyrrolidin-1-yl]-6-fluoro-4-oxo-1-(2,4,6-trifluorophenyl)-1,4-dihydro-1,8-naphthyridine-3-carboxamide] | 2.3 nM | 96% | 
13 | O=C(NCc1c(Cl)cccc1Cl)c1cn(-c2c(F)cc(F)cc2F)c2nc(N3C[C@@H](O)[C@H](O)C3)c(F)cc2c1=O [Example 132, N-(2,6-Dichlorobenzyl)-7-[(3R,4R)-3,4-dihydroxypyrrolidin-1-yl]-6-fluoro-4-oxo-1-(2,4,6-tri-fluorophenyl)-1,4-dihydro-1,8-naphthyridine-3-carboxamide] | 10 nM | 99% | 
14 | O=C(Nc1c(Cl)cccc1Cl)c1cn(-c2ccc(F)cc2F)c2ncc(Cl)cc2c1=O [Example 133, 6-Chloro-N-(2,6-dichlorophenyl)-1-(2,4-difluorophenyl)-4-oxo-1,4-dihydro-1,8-naphthyridine-3-carboxamide] | 1600 nM | 81% | 
15 | CC(C)C(NC(=O)c1cn(-c2c(F)cc(F)cc2Cl)c2nc(N3C[C@@H](O)[C@H](O)C3)c(F)cc2c1=O)C(F)(F)F (stereo partly drawn) [Example 136, 1-(2-Chloro-4,6-difluorophenyl)-7-[(3R,4R)-3,4-dihydroxypyrrolidin-1-yl]-6-fluoro-4-oxo-N-[1,1,1-trifluoro-3-methylbutan-2-yl]-1,4-dihydro-1,8-naphthyridine-3-carboxamide] | 2.8 nM | 84% | 
16 | CC(C)(NC(=O)c1cn(-c2c(F)cc(F)cc2Cl)c2nc(N3C[C@@H](O)[C@H](O)C3)c(F)cc2c1=O)C(F)F [Example 141, 1-(2-Chloro-4,6-difluorophenyl)-N-(1,1-difluoro-2-methylpropan-2-yl)-7-[(3R,4R)-3,4-dihydroxypyrrolidin-1-yl]-6-fluoro-4-oxo-1,4-dihydro-1,8-naphthyridine-3-carboxamide] | 3.4 nM | 97% | 
17 | O=C(N[C@@H](C1CC1)C(F)(F)F)c1cn(-c2c(F)cc(F)cc2F)c2nc(N3CCOCC3)c(F)cc2c1=O [Example 147, N-[(1S)-Cyclopropyl-2,2,2-trifluoroethyl]-6-fluoro-7-(morpholin-4-yl)-4-oxo-1-(2,4,6-trifluorophenyl)-1,4-dihydro-1,8-naphthyridine-3-carboxamide] | 16 nM | 94% | 
